Data published in patent US9376426B2, “Pyridazinone derivatives” (MERCK PATENT GMBH, priority 2009, dated 2016).
pIC50: −log10 of the molar value. Where a name gives a salt, the structure may show the parent alone.

Key:
Met kinase [1] = molecular target: T1, Met kinase (Homo sapiens, UniProt P08581); assay: Met kinase inhibition (cell); format: cell-based
Met kinase [2] = molecular target: T1, Met kinase; assay: Met kinase inhibition, flashplate method (enzyme); format: biochemical; parameters: 6His (N); purchased Upstate 14-526; host or cells: Sf21 insect cells (S. frugiperda), baculovirus
Source text: Measurement of Met Kinase Activity
According to the manufacturer's data (Met, active, upstate, catalogue No. 14-526), Met kinase is expressed for the purposes of protein production in insect cells (Sf21; S. frugiperda) and subsequent affinity-chromatographic purification as “N-terminal 6His-tagged” recombinant human protein in a baculovirus expression vector.
Flashplate Method (Met Kinase)
The test plates used are 96-well Flashplate® microtitre plates from Perkin Elmer (Cat. No. SMP200). The components of the kinase reaction described below are pipetted into the assay plate. The Met kinase and the substrate poly Ala-Glu-Lys-Tyr, (pAGLT, 6:2:5:1), are incubated for 3 hrs at room temperature with radioactively labelled ^33P-ATP in the presence and absence of test substances in a total volume of 100 μl. The reaction is terminated using 150 μl of a 60 mM EDTA solution. After incubation for a further 30 min at room temperature, the supernatants are filtered off with suction, and the wells are washed three times with 200 μl of 0.9% NaCl solution each time. The measurement of the bound radioactivity is carried out by means of a scintillation measuring instrument (Topcount NXT, Perkin-Elmer).
The full value used is the inhibitor-free kinase reaction. This should be approximately in the range 6000-9000 cpm. The pharmacological zero value used is staurosporin in a final concentration of 0.1 mM. The inhibitory values (IC50) are determined using the RS1_MTS program.
Kinase reaction conditions per well:
10 μl of substance to be tested in assay buffer with 10% of DMSO
10 μl of ATP (final concentration 1 μM cold, 0.35 μCi of ^33P-ATP)
50 μl of Met kinase/substrate mixture in assay buffer;
• (10 ng of enzyme/well, 50 ng of pAGLT/well) • Solutions used: • Assay buffer: • 50 mM HEPES • 3 mM magnesium chloride • 3 μM sodium orthovanadate • 3 mM manganese(II) chloride • 1 mM dithiothreitol (DTT) • pH=7.5 (to be set using sodium hydroxide) • Stop solution: • 60 mM Titriplex III (EDTA) • ^33P-ATP: Perkin-Elmer; • Met kinase: Upstate, Cat. No. 14-526, Stock 1 μg/10 μl; spec. activity 954 U/mg; • Poly-Ala-Glu-Lys-Tyr, 6:2:5:1:Sigma Cat. No. P1152 In-Vivo Tests Experimental Procedure: […]

T1 sequence (P08581 25-1390): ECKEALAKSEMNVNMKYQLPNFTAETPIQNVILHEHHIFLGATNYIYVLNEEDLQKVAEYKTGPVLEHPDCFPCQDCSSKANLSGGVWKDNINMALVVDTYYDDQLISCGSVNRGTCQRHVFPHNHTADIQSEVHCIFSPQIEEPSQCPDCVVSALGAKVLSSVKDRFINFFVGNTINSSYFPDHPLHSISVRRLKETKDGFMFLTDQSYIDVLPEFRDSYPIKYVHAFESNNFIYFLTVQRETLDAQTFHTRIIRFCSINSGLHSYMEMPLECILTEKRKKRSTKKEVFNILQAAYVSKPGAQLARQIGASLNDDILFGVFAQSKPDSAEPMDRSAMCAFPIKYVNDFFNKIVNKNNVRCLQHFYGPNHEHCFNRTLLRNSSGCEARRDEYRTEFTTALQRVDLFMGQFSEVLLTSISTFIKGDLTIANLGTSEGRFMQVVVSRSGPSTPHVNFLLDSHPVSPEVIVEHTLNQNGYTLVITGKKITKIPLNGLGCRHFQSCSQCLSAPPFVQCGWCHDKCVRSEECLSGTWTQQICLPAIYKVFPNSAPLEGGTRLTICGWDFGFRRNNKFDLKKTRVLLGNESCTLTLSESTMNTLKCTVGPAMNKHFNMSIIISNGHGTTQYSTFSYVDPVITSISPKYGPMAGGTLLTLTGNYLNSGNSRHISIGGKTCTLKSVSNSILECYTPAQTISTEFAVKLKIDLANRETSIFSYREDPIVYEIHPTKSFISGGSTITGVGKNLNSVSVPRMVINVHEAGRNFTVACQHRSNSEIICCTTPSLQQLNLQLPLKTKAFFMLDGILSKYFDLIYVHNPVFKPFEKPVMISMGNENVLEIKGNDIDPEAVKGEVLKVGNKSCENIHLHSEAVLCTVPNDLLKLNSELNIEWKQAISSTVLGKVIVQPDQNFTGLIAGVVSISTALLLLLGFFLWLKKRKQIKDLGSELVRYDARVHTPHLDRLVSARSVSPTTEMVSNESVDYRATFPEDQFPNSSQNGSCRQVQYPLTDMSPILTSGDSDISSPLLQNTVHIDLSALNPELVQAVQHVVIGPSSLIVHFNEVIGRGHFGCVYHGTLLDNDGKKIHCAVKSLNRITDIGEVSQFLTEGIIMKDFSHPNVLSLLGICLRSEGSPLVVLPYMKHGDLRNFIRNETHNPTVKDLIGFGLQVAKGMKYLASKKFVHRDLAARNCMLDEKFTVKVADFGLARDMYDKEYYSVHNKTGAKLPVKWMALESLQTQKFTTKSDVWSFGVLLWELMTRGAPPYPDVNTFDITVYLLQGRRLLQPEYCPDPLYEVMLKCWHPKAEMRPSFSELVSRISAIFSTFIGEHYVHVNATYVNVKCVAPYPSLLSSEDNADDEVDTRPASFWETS

CN(C)CCCOc1cnc(-c2cccc(Cn3nc(Nc4ccccc4)ccc3=O)c2)nc1 [Compound A1, 2-{3-[5-(3-dimethylaminopropoxy)pyrimidin-2-yl]benzyl}-6-phenylamino-2H-pyridazin-3-one]
pIC50 (Met kinase [1]): 5.00 to 7.00 | pIC50 (Met kinase [2]): 7.00 to 9.00

O=c1ccc(Nc2ccccc2)nn1Cc1cccc(-c2ncc(-c3cnn(C4CCNCC4)c3)cn2)c1 [Compound A2, 6-phenylamino-2-{3-[5-(1-piperidin-4-yl-1H-pyrazol-4-yl)pyrimidin-2-yl]benzyl}-2H-pyridazin-3-one]
pIC50 (Met kinase [1]): 5.00 to 7.00 | pIC50 (Met kinase [2]): 7.00 to 9.00

O=c1ccc(Oc2ccccc2)nn1Cc1cccc(-c2ncc(-c3cnn(CCN4CCCC4)c3)cn2)c1 [Compound A3, 6-phenoxy-2-(3-{5-[1-(2-pyrrolidin-1-ylethyl)-1H-pyrazol-4-yl]pyrimidin-2-yl}benzyl)-2H-pyridazin-3-one]
pIC50 (Met kinase [1]): 5.00 to 7.00 | pIC50 (Met kinase [2]): 7.00 to 9.00

O=c1ccc(Oc2ccccc2)nn1Cc1cccc(-c2ncc(-c3cnn(C4CCNCC4)c3)cn2)c1 [Compound A4, 6-phenoxy-2-{3-[5-(1-piperidin-4-yl-1H-pyrazol-4-yl)pyrimidin-2-yl]benzyl}-2H-pyridazin-3-one hydrochloride]
pIC50 (Met kinase [1]): 5.00 to 7.00 | pIC50 (Met kinase [2]): 5.00 to 7.00

CN(C)CCCOc1cnc(-c2cccc(Cn3nc(C(N)=O)ccc3=O)c2)nc1 [Compound A8, 1-{3-[5-(3-dimethylaminopropoxy)pyrimidin-2-yl]benzyl}-6-oxo-1,6-dihydropyridazine-3-carboxamide]
pIC50 (Met kinase [1]): 5.00 to 7.00 | pIC50 (Met kinase [2]): 5.00 to 7.00
